In brackets after ≈: the same amount, converted by molar mass. Read-outs that look alike come from different tables or passages of the source.
Experiments:
HIV (HTLV-IIIB strain) = assay: microbe, parasite or virus in culture; assay type: cell-based; details: Human immunodeficiency virus 1, IIIB, MT4, 120 h
Summary of the method: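 MT-4 cells (3.5×10^4 per well) were infected with HIV at 60 pfu per well in the presence of diluted compound and incubated for 5 days at 37° C. Surviving cells were then measured by MTT reduction, with the formazan dissolved in acidified isopropanol containing Triton X-100.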

[1] = cytotoxicity in MT-4 cells (MTT, culture medium in place of HIV); assay type: cell-based; details: human
Summary of the method: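 MT-4 cells (3.5×10^4 per well) exposed to diluted compound with culture medium added instead of HIV, 5 days at 37° C in CO2. MTT added for 1 h, formazan dissolved in Triton X-100/acidified isopropanol. OD read at 560 nm (690 nm reference) and compared with control.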

[2] = target: T1, purified recombinant HIV-1 reverse transcriptase (Human immunodeficiency virus type 1 group M subtype B, UniProt P04585); assay: reverse transcriptase inhibition, poly(rA)/(dT) template primer, [3H]dTTP uptake; assay type: biochemical
T1 construct: purified recombinant HIV-1 reverse transcriptase; made in house; host or cells: Escherichia coli
Summary of the method: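 Inhibition reported as percent reduction of [3H]dTTP incorporation relative to solvent control, after 1 h at 37 °C at pH 8.3. Recombinant RT from E. coli, poly(rA) template with oligo(dT) primer, 4 μM unlabeled dTTP as substrate; product collected on DEAE filter mats.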

[3] = MT-4 cells, 60 pfu HIV per well, 37° C., 5 days, MTT, Tables 1 and 2, read-out: EC50
[4] = MT-4 cells, no virus, 37° C., 5 days, MTT, Table 3, read-out: CC50

Row | Structure (SMILES) | EC50 (HIV (HTLV-IIIB strain); [3]) | CC50 at 120 h [1, 4] | IC50 [2] | EC50 (HIV (HTLV-IIIB strain)) | CC50 at 120 h ([1]; mt-4 cells) | IC50 ([2]; read-out: RT IC50, pH 8.3, 37° C., 1 hour, Tables 5 and 6)
1 | CC(C)c1nc(CC#N)n(C)c1Sc1cc(Cl)cc(Cl)c1 [Compound I-80a, [5-(3,5-dichlorophenylthio)-4-isopropyl-1-methyl-1H-imidazol-2-yl]acetonitrile] | 0.002 to 0.004 µg/mL (≈ 0.00588 to 0.0118 µM) | 100 µg/mL (≈ 294 µM) | 0.323 µM |  |  | 
2 | CC(C)c1nc(CCOC(N)=O)n(C)c1Sc1cc(Cl)cc(Cl)c1 [Compound I-81, 2-(2-carbamoyloxy)ethyl-5-(3,5-dichlorophenylthio)-4-isopropyl-1-methyl-1H-imidazole] |  | 10 to 100 µg/mL (≈ 25.8 to 258 µM) | 7.73 µM | 0.13 µg/mL (≈ 0.335 µM) |  | 
3 | CC(C)c1nc(CCO)n(C)c1Sc1cc(Cl)cc(Cl)c1 [Compound I-81a, 2-[5-(3,5-dichlorophenylthio)-4-isopropyl-1-methyl-1H-imidazol-2-yl]ethanol] |  | 12.5 µg/mL (≈ 36.2 µM) | 0.405 µM | 0.001 µg/mL (≈ 0.0029 µM) |  | 
4 | CC(C)c1nc(CCN)n(C)c1Sc1cc(Cl)cc(Cl)c1 [Compound I-82, 2-(2-aminoethyl)-5-(3,5-dichlorophenylthio)-4-isopropyl-1-methyl-1H-imidazole] | 0.25 µg/mL (≈ 0.726 µM) |  |  |  | 1.5 to 3.2 µg/mL (≈ 4.36 to 9.29 µM) | 1.28 µM
5 | CC(=N)NCc1nc(C(C)C)c(Sc2cc(Cl)cc(Cl)c2)n1C [Compound I-84] | 1 µg/mL (≈ 2.69 µM) | 1 to 10 µg/mL (≈ 2.69 to 26.9 µM) | > 269 µM |  |  | 
6 | CNCc1nc(C(C)C)c(Sc2cc(Cl)cc(Cl)c2)n1C [Compound I-85, 5-(3,5-dichlorophenylthio)-4-isopropyl-1-methyl-2-methylaminomethyl-1H-imidazole] | 0.13 µg/mL (≈ 0.378 µM) | 1 to 10 µg/mL (≈ 2.9 to 29 µM) | 7.55 µM |  |  | 
7 | CC(C)c1nc(CN=C(N)N)n(C)c1Sc1cc(Cl)cc(Cl)c1 [Compound I-86, 2-diaminomethylenemethylaminomethyl-5-(3,5-dichlorophenylthio)-4-isopropyl-1-methylimidazole] | 1 µg/mL (≈ 2.69 µM) |  | 33.6 µM |  | 1 µg/mL (≈ 2.69 µM) | 
8 | CC(C)c1nc(CNS(C)(=O)=O)n(C)c1Sc1cc(Cl)cc(Cl)c1 [Compound I-87, 5-(3,5-dichlorophenylthio)-4-isopropyl-2-methanesulfonylaminomethyl-1-methyl-1H-imidazole] | 0.5 to 1 µg/mL (≈ 1.22 to 2.45 µM) | 10 to 100 µg/mL (≈ 24.5 to 245 µM) | > 245 µM |  |  | 
9 | CNC(=S)NCc1nc(C(C)C)c(Sc2cc(Cl)cc(Cl)c2)n1C [Compound I-89, 5-(3,5-dichlorophenylthio)-4-isopropyl-1-methyl-2-(N-methylthiocarbamoyl)aminomethyl-1H-imidazole] | 1 µg/mL (≈ 2.48 µM) | 1 to 10 µg/mL (≈ 2.48 to 24.8 µM) | > 248 µM |  |  | 
10 | CC(C)c1nc(CNC(N)=O)n(C)c1Sc1cc(Cl)cc(Cl)c1 [Compound I-90, 5-(3,5-dichlorophenylthio)-4-isopropyl-1-methyl-2-ureidomethyl-1H-imidazole] | 0.13 µg/mL (≈ 0.348 µM) | 10 to 100 µg/mL (≈ 26.8 to 268 µM) | 6.7 µM |  |  | 
11 | COC(=O)NCc1nc(C(C)C)c(Sc2cc(Cl)cc(Cl)c2)n1C [Compound I-91, 5-(3,5-dichlorophenylthio)-4-isopropyl-1-methyl-2-methoxycarbonylaminomethyl-1H-imidazole] | 0.06 µg/mL (≈ 0.155 µM) | 6.3 to 12.5 µg/mL (≈ 16.2 to 32.2 µM) | 0.876 µM |  |  | 
12 | CC(C)c1nc(COC(N)=O)n(Cc2cccnc2)c1Sc1cc(Cl)cc(Cl)c1 [Compound I-92, 2-carbamoyloxymethyl-5-(3,5-dichlorophenylthio)-4-isopropyl-1-(pyridin-3-yl)methyl-1H-imidazole] |  |  | 0.775 µM | 0.001 µg/mL (≈ 0.00222 µM) | 12.5 to 24 µg/mL (≈ 27.7 to 53.2 µM) | 
13 | CC(C)c1nc(CN)n(Cc2cccnc2)c1Sc1cc(Cl)cc(Cl)c1 [Compound I-94, 2-aminomethyl-5-(3,5-dichlorophenylthio)-4-isopropyl-1-(pyridin-3-yl)methyl-1H-imidazole] | 0.03 µg/mL (≈ 0.0736 µM) | 12.5 to 25 µg/mL (≈ 30.7 to 61.4 µM) | 4.66 µM |  |  | 
14 | CC(C)c1nc(CN)n(Cc2ccccn2)c1Sc1cc(Cl)cc(Cl)c1 [Compound I-95] | 0.03 to 0.06 µg/mL (≈ 0.0736 to 0.147 µM) |  | 1.74 µM |  | 6.3 µg/mL (≈ 15.5 µM) | 
15 | COC(=O)C(C)c1nc(C)n(C)c1Sc1cc(C)cc(C)c1 (stereo not drawn) [Compound I-96, methyl 2-[1,2-dimethyl-5-(3,5-dimethylphenylthio)-1H-imidazol-4-yl]propionate] | 0.03 µg/mL (≈ 0.0942 µM) | 10 to 100 µg/mL (≈ 31.4 to 314 µM) | 14.4 µM |  |  | 
16 | Cc1nc(C(C)C#N)c(Sc2cccc(Cl)c2)n1C (stereo not drawn) [Compound I-97, 2-[5-(3-chlorophenylthio)-1,2-dimethyl-1H-imidazol-4-yl]propiononitrile] | 0.06 to 0.13 µg/mL (≈ 0.206 to 0.445 µM) | 10 to 100 µg/mL (≈ 34.3 to 343 µM) | 25.4 µM |  |  | 
17 | CC(C#N)c1nc(COC(N)=O)n(C)c1Sc1cccc(Cl)c1 (stereo not drawn) [Compound I-98, 2-[2-carbamoyloxymethyl-5-(3-chlorophenylthio)-1-methyl-1H-imidazol-4-yl]propiononitrile] |  | 10 to 100 µg/mL (≈ 28.5 to 285 µM) | 105 µM | 1 µg/mL (≈ 2.85 µM) |  | 
18 | Cc1nc(C(C)C(=O)O)c(Sc2cccc(Cl)c2)n1C (stereo not drawn) [Compound I-99] | 6.3 µg/mL (≈ 20.3 µM) | > 100 µg/mL | > 322 µM |  |  | 
19 | Cc1nc(C(C)C)c(Cc2cc(Cl)cc(Cl)c2)n1C [Compound I-100, 5-(3,5-dichlorobenzyl)-1,2-dimethyl-4-isopropyl-1H-imidazole] | 1 µg/mL (≈ 3.36 µM) | 12.5 µg/mL (≈ 42.1 µM) | 42.1 µM |  |  | 
20 | CC(C)c1nc(CN)n(C)c1Cc1cc(Cl)cc(Cl)c1 [Compound I-101, 2-aminomethyl-5-(3,5-dichlorobenzyl)-4-isopropyl-1-methyl-1H-imidazole] | 1 µg/mL (≈ 3.2 µM) | 10 to 100 µg/mL (≈ 32 to 320 µM) | 80.7 µM |  |  | 
21 | CC(C)c1nc(CO)n(C)c1Cc1cccc(Cl)c1 [Compound I-102, [5-(3-chlorobezyl)-4-isopropyl-1-methyl-1H-imidazol-2-yl]methanol] | 0.5 to 1 µg/mL (≈ 1.79 to 3.59 µM) | 1 to 10 µg/mL (≈ 3.59 to 35.9 µM) | 86.4 µM |  |  | 
22 | CC(C)c1nc(COC(N)=O)n(C)c1Cc1cc(Cl)cc(Cl)c1 [Compound I-103, 2-carbamoyloxymethyl-5-(3,5-dichlorobenzyl)-4-isopropyl-1-methyl-1H-imidazole] |  | 10 to 100 µg/mL (≈ 28.1 to 281 µM) | 19.1 µM | 0.5 µg/mL (≈ 1.4 µM) |  | 
23 | Cc1cc(C)cc([S+]([O-])c2c(C(C)C)nc(C)n2C)c1 (stereo not drawn) [Compound I-104, 5-(3,5-dimethylphenylsulfinyl)-4-isopropyl-1,2-dimethyl-1H-imidazole] | 1 to 10 µg/mL (≈ 3.44 to 34.4 µM) | 10 to 100 µg/mL (≈ 34.4 to 344 µM) | > 344 µM |  |  | 
24 | Cc1cc(C)cc(S(=O)(=O)c2c(C(C)C)nc(C)n2C)c1 [Compound I-105, 5-(3,5-dimethylphenylsulfonyl)-4-isopropyl-1,2-dimethyl-1H-imidazole] | 0.5 µg/mL (≈ 1.63 µM) | 50 to 100 µg/mL (≈ 163 to 326 µM) | 171 µM |  |  | 
25 | Cc1cc(C)cc([S+]([O-])c2c(C(C)C)nc(CO)n2C)c1 (stereo not drawn) [Compound I-106, [5-(3,5-dimethylphenylsulfinyl)-4-isopropyl-1-methyl-1H-imidazol-2-yl]methanol] | 1 to 10 µg/mL (≈ 3.26 to 32.6 µM) | 100 µg/mL (≈ 326 µM) | > 326 µM |  |  | 
26 | CC(C)c1nc(CO)n(Cc2ccccc2N)c1Sc1cc(Cl)cc(Cl)c1 [Compound I-119, 1-(o-aminobenzyl)-5-(3,5-dichlorophenylthio)-2-hydroxymethyl-4-isopropyl-1H-imidazole] | 0.13 to 0.25 µg/mL (≈ 0.308 to 0.592 µM) |  | 7.81 µM |  | 3.1 µg/mL (≈ 7.34 µM) | 
27 | CC(C)c1nc(CO)n(Cc2cccc3ccccc23)c1Sc1cc(Cl)cc(Cl)c1.Cl [Compound I-120, 5-(3,5-dichlorophenylthio)-2-hydroxymethyl-4-isopropyl-1-(1-naphthylmethyl)-1H-imidazole hydrochloride] | 0.13 µg/mL |  | 99.6 µM |  | 100 µg/mL | 
28 | CC(C)c1nc(CO)n(CCc2ccccc2)c1Sc1cc(Cl)cc(Cl)c1 [Compound I-121, 5-(3,5-dichlorophenylthio)-2-hydroxymethyl-4-isopropyl-1-(2-phenylethyl)-1H-imidazole] | 0.06 µg/mL (≈ 0.142 µM) |  | 85.2 µM |  | 12.5 µg/mL (≈ 29.7 µM) | 
29 | CC(C)c1nc(CO)n(CCCc2ccccc2)c1Sc1cc(Cl)cc(Cl)c1 [Compound I-122, 5-(3,5-dichlorophenylthio)-2-hydroxymethyl-4-isopropyl-1-(3-phenylpropyl)-1H-imidazole] | 0.008 µg/mL (≈ 0.0184 µM) |  | 7.12 µM |  | 6.3 to 12.5 µg/mL (≈ 14.5 to 28.7 µM) | 

Reference: patent US6147097A, “Imidazole derivatives as anti-HIV agents” (Shionogi & Co., Ltd., priority 1994, dated 2000)
